Measurements published in PubChem BioAssay (NCI).
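1) Cells in 96-well plates. 2) Compound, 48 h, 5 concentrations. 3) Linear interpolation between surrounding doses. 4) Unreached endpoint = highest concentration. At the GI50, growth is halved. TGI: total growth inhibition.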

What was measured:
Assay in all cases: NCI-60 cell line screen, 48 h
[1] = test system: 786-0 renal
[2] = test system: A498 renal
[3] = test system: BT-549 breast
[4] = test system: HS 578T breast
[5] = test system: K-562 leukemia
[6] = test system: MDA-MB-231 breast
[7] = test system: NCI-H460 lung
[8] = test system: NCI/ADR-RES ovarian
[9] = test system: SF-295 CNS
[10] = test system: SK-MEL-5 melanoma
[11] = test system: SNB-19 CNS
[12] = test system: UACC-257 melanoma
[13] = test system: MDA-N

| Structure (SMILES) | TGI [1] [µM] | TGI [2] [µM] | TGI [3] [µM] | TGI [4] [µM] | TGI [5] [µM] | TGI [6] [µM] | TGI [7] [µM] | TGI [8] [µM] | TGI [9] [µM] | TGI [10] [µM] | TGI [11] [µM] | TGI [12] [µM] | TGI [13] [µM] | GI50 [5] [µM] | GI50 [6] [µM] | GI50 [8] [µM] | GI50 [9] [µM] | GI50 [10] [µM] | GI50 [11] [µM] |
| --- | --- | --- | --- | --- | --- | --- | --- | --- | --- | --- | --- | --- | --- | --- | --- | --- | --- | --- | --- |
| CN1CCN(c2ccc3c(c2)NCC(=O)N3)CC1 | > 100 | > 100 | > 100 | > 100 | > 100 | > 100 | > 100 | > 100 | > 100 | > 100 | > 100 | > 100 |  |  |  |  |  |  |  |
| CC(C)/C(Cl)=N/OC(=O)Nc1ccc(Cl)c(Cl)c1 | 3.46 | 33.5 | 9.62 | 54.5 |  | 30.2 | 34 | 32 | 32.2 | 27.3 | 50.4 | 27.9 | 10.8 |  |  |  |  |  |  |
| CC1CC(C#N)=C2NCCN2C1=O (stereo not given) | > 100 |  | > 100 | > 100 | > 100 | > 100 | > 100 | > 100 | > 100 | 28.5 | > 100 | > 100 | 31.8 |  |  |  |  |  |  |
| O=C1N[C@@H]2C(=C[C@H](O)[C@@H](O)[C@H]2O)c2cc3c(c(O)c21)OCO3 |  | 0.106 |  |  | 0.0955 |  | 0.119 | 0.0972 | 0.245 | 0.0774 | 0.0665 | 0.088 |  |  |  |  |  |  |  |
| CN1CCN(P2(=S)Oc3ccc4ccccc4c3-c3c(ccc4ccccc34)O2)CC1 |  | > 100 |  |  | > 76.9 |  | 42.1 | > 71 | > 100 | 53.2 | > 100 | > 91.4 |  |  |  |  |  |  |  |
| COc1cc(O)c2c(=O)c(OC)c(-c3ccc(OC)c(OC)c3)oc2c1 |  | > 100 |  |  | > 100 | > 100 | > 100 | > 100 | > 100 | > 100 | > 100 | > 100 | > 100 | > 100 | > 100 | 62.7 | > 100 | 82 | > 100 |
| COc1cc(Nc2nc3cc(C(F)(F)F)ccc3n3cccc23)cc(OC)c1OC |  | > 100 | > 100 | > 100 | > 100 |  |  | > 100 | > 100 | > 100 | > 100 | > 100 | > 100 |  |  |  |  |  |  |
| CCOC(=O)c1c[nH]c2ccc3c(c2c1=O)S(=O)(=O)CC3 (tested in a mixture with another compound) |  | > 100 |  |  | > 100 |  | > 100 | > 100 | > 100 | > 100 | > 100 | > 100 |  |  |  |  |  |  |  |
| COC(=O)C1CCC(=O)N1C(c1ccc2c(c1)OCO2)c1cc(OC)c(OC)c(OC)c1 (stereo not given) | > 100 | > 100 | > 100 | > 100 | > 100 | > 100 | > 100 |  | > 100 | > 100 | > 100 | > 100 | > 100 |  |  |  |  |  |  |
| CN(C)CCNC(=O)c1cccc2c(NC(CCC(N)=O)C(=O)O)c3ccccc3nc12 (stereo not given) | > 100 | 37.2 | 33.4 |  | > 100 | 24.7 | 54.9 | > 100 | 25.5 | 31.4 | 15.5 | > 100 | 31.4 |  |  |  |  |  |  |
